Substitutions are numbered along the chain they refer to.
How the values were obtained:
Test in all cases: liposome lipid transfer, NBD dequenching
Type in all cases: biochemical
[1] = target: T1, Ups2Δ174–Mdm35 (Saccharomyces cerevisiae, UniProt P35200); conditions: labelled compound, 50 nM complex, 12.5 µM donor and 50 µM acceptor liposomes, pH 7.4, 25 °C
T1 construct: gene UPS2; N-His Ups2 truncated after W174, with Mdm35, E. coli Rosetta-gami2; with Mitochondrial distribution and morphology protein 35
T1 sequence (P35200 1-174): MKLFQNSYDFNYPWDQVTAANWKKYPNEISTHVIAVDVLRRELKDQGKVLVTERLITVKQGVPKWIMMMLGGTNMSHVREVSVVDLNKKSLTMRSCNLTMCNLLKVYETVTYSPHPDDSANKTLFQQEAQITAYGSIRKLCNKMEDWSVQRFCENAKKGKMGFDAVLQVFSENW
T1 sequence (O60200 1-86 partner): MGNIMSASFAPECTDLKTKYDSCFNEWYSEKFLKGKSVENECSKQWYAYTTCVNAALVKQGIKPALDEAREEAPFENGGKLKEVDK

[2] = target: T2, Ups2 loop-swap variant (Saccharomyces cerevisiae, UniProt P35200); conditions: labelled compound; 50 nM complex, 12.5 µM donor and 50 µM acceptor liposomes, pH 7.4, 25 °C
T2 construct: N-His Ups2Δ174 carrying the Ups1 Omega loop (residues 60-71), codon-optimised, with Mdm35, E. coli Rosetta-gami2; with Mitochondrial distribution and morphology protein 35
T2 sequence (P35200 1-174): T1 sequence (P35200 1-174)
T2 sequence (O60200 1-86 partner): T1 sequence (O60200 1-86 partner)

[3] = target: T3, Ups1–Mdm35 (Saccharomyces cerevisiae, UniProt Q05776); conditions: labelled compound, 12.5 µM donor and 50 µM acceptor liposomes, pH 7.4, 20 °C
T3 construct: N-terminally His-tagged Ups1 with Mdm35, E. coli S30 cell-free expression; heterodimer; with Mitochondrial distribution and morphology protein 35
T3 sequence (Q05776 1-175): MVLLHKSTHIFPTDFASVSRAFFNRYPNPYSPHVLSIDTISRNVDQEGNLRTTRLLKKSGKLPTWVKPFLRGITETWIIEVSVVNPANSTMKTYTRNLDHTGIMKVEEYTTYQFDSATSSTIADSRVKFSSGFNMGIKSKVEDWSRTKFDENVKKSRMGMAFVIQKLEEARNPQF
T3 sequence (O60200 1-86 partner): T1 sequence (O60200 1-86 partner)

[4] = target: T4, PRELID1–TRIAP1 (Homo sapiens, UniProt Q9Y255); conditions: labelled compound, 12.5 µM donor and 50 µM acceptor liposomes, pH 7.4, 20 °C
T4 construct: N-His-tagged PRELID1 co-expressed with TRIAP1 from pETDuet-1 in E. coli; heterodimer
T4 sequence (Q9Y255 whole entry): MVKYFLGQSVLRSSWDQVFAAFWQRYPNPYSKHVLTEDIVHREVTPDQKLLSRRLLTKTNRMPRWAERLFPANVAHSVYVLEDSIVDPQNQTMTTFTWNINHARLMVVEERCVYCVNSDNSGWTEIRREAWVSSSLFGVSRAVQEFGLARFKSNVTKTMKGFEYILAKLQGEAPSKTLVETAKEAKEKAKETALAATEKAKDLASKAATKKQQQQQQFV
T4 sequence (O43715 whole entry partner): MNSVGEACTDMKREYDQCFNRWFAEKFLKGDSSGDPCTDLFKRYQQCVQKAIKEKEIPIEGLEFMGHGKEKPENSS

[5] = target: T5, PRELID1–TRIAP1 (Homo sapiens, UniProt Q9Y255, K58V); conditions: labelled compound; 120 nM complex, 12.5 µM donor and 50 µM acceptor liposomes, pH 7.4, 20 °C
T5 construct: N-His-tagged PRELID1 co-expressed with TRIAP1 from pETDuet-1 in E. coli; heterodimer
T5 sequence (Q9Y255 whole entry K58V): as the sequence (Q9Y255 whole entry) above, with K58V counted along it
T5 sequence (O43715 whole entry partner): as the sequence (O43715 whole entry partner) above

[6] = target: T6, Ups1–Mdm35 (Saccharomyces cerevisiae, UniProt Q05776, K58V); conditions: labelled compound; 50 nM complex, 12.5 µM donor and 50 µM acceptor liposomes, pH 7.4, 20 °C
T6 construct: N-terminally His-tagged Ups1 with Mdm35, E. coli S30 cell-free expression; heterodimer; with Mitochondrial distribution and morphology protein 35
T6 sequence (Q05776 1-175 K58V): T3 sequence (Q05776 1-175) with K58V
T6 sequence (O60200 1-86 partner): T1 sequence (O60200 1-86 partner)

[7] = target: T7, PRELID1–TRIAP1 (Homo sapiens, UniProt Q9Y255, K58T); conditions: labelled compound; 120 nM complex, 12.5 µM donor and 50 µM acceptor liposomes, pH 7.4, 20 °C
T7 construct: N-His-tagged PRELID1 co-expressed with TRIAP1 from pETDuet-1 in E. coli; heterodimer
T7 sequence (Q9Y255 whole entry K58T): as the sequence (Q9Y255 whole entry) above, with K58T counted along it
T7 sequence (O43715 whole entry partner): as the sequence (O43715 whole entry partner) above

[8] = target: T8, Ups1–Mdm35 (Saccharomyces cerevisiae, UniProt Q05776, E108D); conditions: labelled compound; 50 nM complex, 12.5 µM donor and 50 µM acceptor liposomes, pH 7.4, 20 °C
T8 construct: N-terminally His-tagged Ups1 with Mdm35, E. coli S30 cell-free expression; heterodimer; with Mitochondrial distribution and morphology protein 35
T8 sequence (Q05776 1-175 E108D): T3 sequence (Q05776 1-175) with E108D
T8 sequence (O60200 1-86 partner): T1 sequence (O60200 1-86 partner)

| SMILES | liposome lipid transfer, NBD dequenching ([1]; inefficient substrate) | liposome lipid transfer, NBD dequenching [2] | liposome lipid transfer, NBD dequenching ([3]; 12.5 nM complex) | liposome lipid transfer, NBD dequenching [4] | liposome lipid transfer, NBD dequenching [5] | liposome lipid transfer, NBD dequenching [6] | liposome lipid transfer, NBD dequenching [7] | liposome lipid transfer, NBD dequenching [1] | liposome lipid transfer, NBD dequenching [8] | liposome lipid transfer, NBD dequenching ([3]; 50 nM complex, inefficient substrate) | liposome lipid transfer, NBD dequenching ([4]; 120 nM complex, low activity) |
| --- | --- | --- | --- | --- | --- | --- | --- | --- | --- | --- | --- |
| CCCCCCCC/C=C\CCCCCCCC(=O)OC[C@H](COP(=O)(O)O)OC(=O)CCCCCCCCCCCNc1ccc([N+](=O)[O-])c2nonc12 [NBD-PA] | Ups2–Mdm35 complexes transferred PA only inefficiently when compared to PS | we observed efficient PA transport by the loop-swap variant of Ups2 | PA transfer of wildtype (WT) and mutant Ups1–Mdm35 complexes in vitro | While efficiently mediating the transfer of PA, PRELID1 showed a low PS transfer activity |  |  |  |  |  |  |  |
| CCCCCCCC/C=C\CCCCCCCC(=O)OC[C@H](COP(=O)(O)OC[C@H](N)C(=O)O)OC(=O)CCCCCCCCCCCNc1ccc([N+](=O)[O-])c2nonc12 [NBD-PS] |  | its ability to transfer PS was significantly reduced |  |  | substitution of K58 by valine or threonine substantially increased the ability of PRELID1 | The mutations K58V or E108D in Ups1 increased PS transport | substitution of K58 by valine or threonine substantially increased the ability of PRELID1 | PS transfer by Ups2 and loop-swap variant | The mutations K58V or E108D in Ups1 increased PS transport | Ups1–Mdm35 complexes transferred PS only inefficiently when compared to PA | PRELID1 showed a low PS transfer activity, similar to Ups1 |

— publication PMC6408443, “Structural determinants of lipid specificity within Ups/PRELI lipid transfer proteins” (Nature Communications, 2019)
